Measured values: publication PMC9583330, “Quinazoline-4(3H)-one-7-carboxamide Derivatives as Human Soluble Epoxide Hydrolase Inhibitors with Developable 5-Lipoxygenase Activating Protein Inhibition” (ACS Omega, 2022)
Several values for one entry are separate records, joined by “and”; a condition that tells them apart may be missing. Equal values may be shown once.

What was measured:
[1] = system: FLAP-mediated cellular LT formation in human neutrophils; experiment: FLAP-dependent 5-LO product formation in intact neutrophils; type: cell-based; settings: Neutrophil; for IC50: Homo sapiens, intact neutrophils challenged with 2.5 μM ionophore plus 20 μM arachidonic acid; for activity at 10 µM: 10 μM inhibitor, read-out: 5-LO product formation in neutrophils, remaining activity (% of control) at 10 μM; for activity at 10 µM / activity at 1 µM: human neutrophils, 2.5 μM Ca2+-ionophore A23187, means ± SEM, n = 4–5; for activity at 1 µM: 1 μM inhibitor, read-out: 5-LO product formation in neutrophils, remaining activity (% of control) at 1 μM
Method: Neutrophils were isolated from leukocyte concentrates obtained from freshly withdrawn peripheral blood of healthy adult male and female donors which were provided by the Institute of Transfusion Medicine, University Hospital Jena, Germany. The experimental protocol was approved by the ethical committee of the University Hospital Jena, and all methods were performed in accordance with the relevant guidelines and regulations. The leukocyte concentrates were mixed with dextran (from Leuconostoc spp. MW ∼40,000, Sigma Aldrich) for sedimentation of erythrocytes, and the supernatant was centrifuged on lymphocyte separation medium (Histopaque-1077, Sigma Aldrich). Contaminating erythrocytes in the pelleted neutrophils were removed by hypotonic lysis using distilled water. The neutrophils were washed twice in ice-cold PBS pH 7.4 and finally resuspended in PBS pH 7.4 plus 1 mg/mL glucose (PGC buffer).
Human neutrophils [5 × 10^6; in PGC buffer; incubation volume, 1 mL] were preincubated with 0.1% DMSO (vehicle) or with the compounds at 37 °C for 15 min. […] Samples were then subjected to solid-phase extraction on C18-columns (100 mg, UCT, Bristol, PA), and 5-LO products (LTB4 and its trans-isomers, and 5-H(p)ETE) were extracted and analyzed in the presence of internal standard PGB1 by RP-HPLC and UV detection as reported elsewhere.[45]

[2] = molecular target: T1, Human recombinant sEH (Homo sapiens, UniProt P34913); experiment: sEH cell-free fluorescence-based assay (PHOME substrate); type: biochemical; settings: means ± SEM, n = 3; for IC50: cell-free assay, human sEH; for remaining activity at 10 µM: residual activity at 10 μM, control = vehicle 100%
T1 construct: made in house; host or cells: Sf9 insect cells, recombinant baculovirus from Dr. B. Hammock
T1 sequence (P34913 1-555): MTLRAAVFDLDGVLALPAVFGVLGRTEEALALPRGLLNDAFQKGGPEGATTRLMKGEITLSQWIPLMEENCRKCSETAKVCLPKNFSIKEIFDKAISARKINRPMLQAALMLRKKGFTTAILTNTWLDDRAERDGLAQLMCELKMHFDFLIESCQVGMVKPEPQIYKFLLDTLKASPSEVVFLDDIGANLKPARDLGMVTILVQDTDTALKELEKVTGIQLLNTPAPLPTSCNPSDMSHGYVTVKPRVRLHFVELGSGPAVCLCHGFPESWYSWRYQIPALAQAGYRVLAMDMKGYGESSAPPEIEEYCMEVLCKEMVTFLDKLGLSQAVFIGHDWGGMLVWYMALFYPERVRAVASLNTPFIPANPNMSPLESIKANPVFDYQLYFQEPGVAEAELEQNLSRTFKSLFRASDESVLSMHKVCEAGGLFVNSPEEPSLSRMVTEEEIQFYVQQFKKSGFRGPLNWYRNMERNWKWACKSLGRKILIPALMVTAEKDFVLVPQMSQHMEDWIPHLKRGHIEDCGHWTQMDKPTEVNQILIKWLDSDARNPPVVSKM
Method: Human recombinant sEH was expressed and purified as reported before.[46] In brief, Sf9 cells were infected with a recombinant baculovirus (kindly provided by Dr. B. Hammock, University of California, Davis, CA). Seventy-two hours post-transfection, cells were pelleted and sonicated (3 × 10 s at 4 °C) in lysis buffer containing NaHPO4 (50 mM, pH 8), NaCl (300 mM), glycerol (10%), EDTA (1 mM), phenylmethanesulfonyl fluoride (1 mM), leupeptin (10 μg/mL), and a soybean trypsin inhibitor (60 μg/mL). Supernatants after centrifugation at 100,000 × g (60 min, 4 °C) were subjected to benzylthio-sepharose-affinity chromatography in order to purify sEH by elution with 4-fluorochalcone oxide in PBS containing 1 mM DTT and 1 mM EDTA. Dialyzed and concentrated (Millipore Amicon-Ultra-15 centrifugal filter) enzyme solution was assayed for total protein with a Bio-Rad protein detection kit (Bio-Rad Laboratories, Munich, Germany), and the epoxide hydrolase activity was determined by using a fluorescence-based assay as described before.[47] Shortly, sEH was diluted in Tris buffer (25 mM, pH 7) supplemented with BSA (0.1 mg/mL) to an appropriate enzyme concentration and preincubated with test compounds or vehicle (0.1% DMSO) for 10 min at room temperature (RT). The reaction was started by the addition of 50 μM 3-phenyl-cyano(6-methoxy-2-naphthalenyl)methyl ester-2-oxiraneacetic acid (PHOME), a nonfluorescent compound that is enzymatically converted into fluorescent 6-methoxy-naphtaldehyde at RT. After 60 min, reactions were stopped by ZnSO4 (200 mM) and fluorescence was detected (λem 465 nm, λex 330 nm) using a NOVOstar microplate reader (BMG Labtech GmbH, Ortenberg, Germany), and potential fluorescence of test compounds was subtracted from the read-out, if required.

| SMILES | melting point | IC50 [1] | activity at 10 µM [1] | IC50 [2] | remaining activity at 10 µM [2] | activity at 1 µM [1] |
| --- | --- | --- | --- | --- | --- | --- |
| O=C(O)c1ccc2c(=O)n(-c3ccccc3)c(SCc3ccccc3Cl)nc2c1 [Compound 10, 2-((2-Chlorobenzyl)thio)-4-oxo-3-phenyl-3,4-dihydroquinazoline-7-carboxylic Acid] | 277.8 to 279.8 °C | 2.1 ± 0.4 µM | 1.3 ± 0.3% | – | – | – |
| CC(C)CNC(=O)c1ccc2c(=O)n(-c3ccccc3)c(SCc3ccccc3Cl)nc2c1 [Compound 12, N-Isobutyl-4-oxo-3-phenyl-2-((2-chlorobenzyl)thio)-3,4-dihydroquinazoline-7-carboxamide] | 230.8 to 232.7 °C | – | – | 7400 ± 2800 nM | – | – |
| CC(C)NC(=O)c1ccc2c(=O)n(-c3ccccc3)c(SCc3ccc(C(F)(F)F)cc3)nc2c1 [Compound 13, N-Isopropyl-4-oxo-3-phenyl-2-((4-(trifluoromethyl)benzyl)thio)-3,4-dihydroquinazoline-7-carboxamide] | 212.5 to 213.3 °C | – | – | ~10000 nM | 58.3% | – |
| CC(C)CNC(=O)c1ccc2c(=O)n(-c3ccccc3)c(SCc3ccc(C(F)(F)F)cc3)nc2c1 [Compound 14, N-Isobutyl-4-oxo-3-phenyl-2-((4-(trifluoromethyl)benzyl)thio)-3,4-dihydroquinazoline-7-carboxamide] | 214.7 to 216.6 °C | – | – | 4500 ± 700 nM | – | – |
| COC(=O)c1cccc(CSc2nc3cc(C(=O)NCC(C)(C)C)ccc3c(=O)[nH]2)c1 [Compound 20, Methyl 3-(((7-(neopentylcarbamoyl)-4-oxo-3,4-dihydroquinazolin-2-yl)thio)methyl)benzoate] | 269.6 to 271.4 °C | – | – | > 10000 nM | 94.3% | – |
| CC(C)(C)CNC(=O)c1ccc2c(=O)[nH]c(SCc3cccc(C(=O)O)c3)nc2c1 [Compound 21, 3-(((7-(Neopentylcarbamoyl)-4-oxo-3,4-dihydroquinazolin-2-yl)thio)methyl)benzoic Acid] | 250.6 to 252.6 °C | – | – | ~10000 nM | 51.9% | – |
| O=C(O)c1ccc2c(=O)[nH]c(SCc3ccccc3Cl)nc2c1 [Compound 22] | 280 °C (dec.) | ~10 µM | 50.3 ± 15.5% | – | – | 102 ± 5.4% |
| CC(C)(C)CNC(=O)c1ccc2c(=O)[nH]c(SCc3ccccc3Cl)nc2c1 [Compound 34, 2-((2-Chlorobenzyl)thio)-N-neopentyl-4-oxo-3,4-dihydroquinazoline-7-carboxamide] | 238.4 to 239.8 °C | 2.91 µM | 4.5 ± 1.2% | 660 nM and 700 nM | – | 84.5 ± 4.5% |
| CC(C)(C)CNC(=O)c1ccc2c(=O)[nH]c(SCc3cccc(Cl)c3)nc2c1 [Compound 35, 2-((3-Chlorobenzyl)thio)-N-neopentyl-4-oxo-3,4-dihydroquinazoline-7-carboxamide] | 217.1 to 218.4 °C | > 10 µM | 62.1 ± 12.2% | 300 ± 50 nM | – | 93.5 ± 11.4% |
| CC(C)(C)CNC(=O)c1ccc2c(=O)[nH]c(SCc3ccc(Cl)cc3)nc2c1 [Compound 36, 2-((4-Chlorobenzyl)thio)-N-neopentyl-4-oxo-3,4-dihydroquinazoline-7-carboxamide] | 220 to 222 °C | < 10 µM | 29.7 ± 7.2% | 1100 ± 100 nM | – | 89.5 ± 8.9% |
| CC(C)(C)CNC(=O)c1ccc2c(=O)[nH]c(SCc3ccccc3C(F)(F)F)nc2c1 [Compound 37, 2-((2-(Trifluoromethyl)benzyl)thio)-N-Neopentyl-4-oxo-3,4-dihydroquinazoline-7-carboxamide] | 217.9 to 219.3 °C | < 10 µM | 20.9 ± 12.1% | 500 ± 50 nM | – | 97.6 ± 4% |
| CC(C)(C)CNC(=O)c1ccc2c(=O)[nH]c(SCc3ccccc3F)nc2c1 [Compound 39, 2-((2-Fluorobenzyl)thio)-N-neopentyl-4-oxo-3,4-dihydroquinazoline-7-carboxamide] | 210.3 to 212.2 °C | – | – | 1300 ± 100 nM | – | – |
| CC(C)(C)CNC(=O)c1ccc2c(=O)[nH]c(SCc3ccccc3C#N)nc2c1 [Compound 40, 2-((2-Cyanobenzyl)thio)-N-neopentyl-4-oxo-3,4-dihydroquinazoline-7-carboxamide] | 190.3 to 192.2 °C | – | – | 2400 ± 300 nM | – | – |
| Cc1ccccc1CSc1nc2cc(C(=O)NCC(C)(C)C)ccc2c(=O)[nH]1 [Compound 41, 2-((2-Methylbenzyl)thio)-N-neopentyl-4-oxo-3,4-dihydroquinazoline-7-carboxamide] | 207.4 to 209.4 °C | – | – | 1200 ± 100 nM | – | – |
| COc1ccccc1CSc1nc2cc(C(=O)NCC(C)(C)C)ccc2c(=O)[nH]1 [Compound 42, 2-((2-Methoxybenzyl)thio)-N-neopentyl-4-oxo-3,4-dihydroquinazoline-7-carboxamide] | 230.2 to 232.1 °C | – | – | 3900 ± 2000 nM | – | – |
| CC(C)(C)CNC(=O)c1ccc2c(=O)[nH]c(SCc3ccccc3OC(F)(F)F)nc2c1 [Compound 43, 2-((2-(Trifluoromethoxy)benzyl)thio)-N-neopentyl-4-oxo-3,4-dihydroquinazoline-7-carboxamide] | 220.9 to 221.9 °C | – | – | 400 ± 100 nM | – | – |
| Cc1ncccc1CSc1nc2cc(C(=O)NCC(C)(C)C)ccc2c(=O)[nH]1 [Compound 44, 2-(((2-Methylpyridin-3-yl)methyl)thio)-N-neopentyl-4-oxo-3,4-dihydroquinazoline-7-carboxamide] | 202.3 to 203.8 °C | – | – | 11000 nM and 11200 nM | – | – |
| CC(C)CNC(=O)c1ccc2c(=O)[nH]c(SCc3ccc(C(F)(F)F)cc3)nc2c1 [Compound 46, 2-((4-(Trifluoromethyl)benzyl)thio)-N-isobutyl-4-oxo-3,4-dihydroquinazoline-7-carboxamide] | 262.8 to 264.6 °C | – | – | 1500 ± 200 nM | – | – |
| O=C(c1ccc2c(=O)[nH]c(SCc3ccccc3Cl)nc2c1)N1CCNCC1 [Compound 48, 2-((2-Chlorobenzyl)thio)-7-(piperazine-1-carbonyl)quinazolin-4(3H)-one] | 159.9 to 162 °C | – | – | > 10000 nM | 105% | – |
| O=C(c1ccc2c(=O)[nH]c(SCc3ccccc3Cl)nc2c1)N1CCCCC1 [Compound 49] | 175.6 to 177.2 °C | – | – | > 10000 nM | 58.5% | – |
| O=C(c1ccc2c(=O)[nH]c(SCc3ccccc3Cl)nc2c1)N1CCOCC1 [Compound 50, 2-((2-Chlorobenzyl)thio)-7-(morpholine-4-carbonyl)quinazolin-4(3H)-one] | 198.6 to 200.4 °C | – | – | > 10000 nM | 77.7% | – |
